{"source": "paper PMC3907409", "about": "“A Cytoplasmic New Catalytic Subunit of Calcineurin in Trypanosoma cruzi and Its Molecular and Functional Characterization” (PLoS Neglected Tropical Diseases, 2014)", "target": "T1, TcCaNA2 (Trypanosoma cruzi, UniProt G9B7N4)", "T1 construct": "gene CaNA2; tag cleavage not mentioned; primers from CL Brener XM_816360.1", "T1 sequence (G9B7N4 entry or part of it)": "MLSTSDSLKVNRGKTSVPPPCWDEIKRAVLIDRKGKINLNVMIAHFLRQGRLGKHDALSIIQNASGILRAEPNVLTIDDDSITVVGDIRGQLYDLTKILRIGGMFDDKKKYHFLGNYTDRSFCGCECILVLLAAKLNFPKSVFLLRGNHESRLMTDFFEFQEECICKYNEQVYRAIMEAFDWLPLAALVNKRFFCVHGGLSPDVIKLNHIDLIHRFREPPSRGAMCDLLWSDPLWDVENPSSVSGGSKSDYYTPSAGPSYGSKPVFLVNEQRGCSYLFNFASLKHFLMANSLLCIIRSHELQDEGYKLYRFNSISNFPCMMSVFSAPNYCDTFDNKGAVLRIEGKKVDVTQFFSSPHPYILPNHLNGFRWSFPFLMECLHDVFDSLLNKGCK", "assay": "colorimetric phosphatase assay, absorbance at […] nm", "format": "biochemical", "details": "80 mM p-NPP, 1 µg enzyme, 15 min at 30 °C; 1 mM MnCl2 or NiCl2 (also CaCl2, MgCl2)"}
{"smiles": "O=[N+]([O-])c1ccc(OP(=O)(O)O)cc1", "note": "[p-nitrophenyl phosphate]", "values": [{"measurement": "colorimetric phosphatase assay, absorbance at 405 nm", "value": "The recombinant protein TcCaNA2 showed enzymatic activity using p-NPP as substrate"}]}
